Test results from patent US10172868B2, “Substituted quinazolines for inhibiting kinase activity” (NeuPharma, Inc., priority 2013, dated 2019).

Key:
HCC827 cells = test: cells; conditions: Homo sapiens, HCC827, 72 h, read-out: IC50 in HCC827 cells
EGFR (ErbB1) T790M L858R = EGFR (ErbB1) T790M L858R (Homo sapiens (Human), UniProt P00533, L858R/T790M); test: Z'-LYTE kinase inhibition assay, EGFR L858R/T790M; assay type: biochemical; conditions: for inhibition at 1 µM: read-out: % inhibition against EGFR L858R/T790M (Compound at 1 μM); for IC50: read-out: IC50 against EGFR L858R/T790M; for inhibition at 0.0137 µM: read-out: % inhibition against EGFR L858R/T790M (Compound at 0.0137 μM)
Outline: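 IC50 taken from 10-point, 3-fold serial dilutions tested in 1% DMSO. The mutant kinase and peptide were prepared in HEPES pH 6.5 buffer with BRIJ-35, MgCl2, EGTA and NaN3, then reacted with ATP for 1 h at room temperature. Development reagent was added for a further hour before the fluorescence readout.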

H1975 cells = test: Inhibition of cancer cell growth, MTT assay, H1975; conditions: Homo sapiens, NCI-H1975, 72 h, read-out: IC50 in H1975 cells
Procedure: Inhibition of cell growth by compounds was measured using MTT assay (Mosmann, T., Journal of Immunological Methods, 1983, 65, 55-63). Tumor cell lines were purchased from ATCC (American Type Culture Collection, Manassas, Va.). All cell lines were maintained in RPMI 1640 (Hyclone) supplemented with 10% fetal bovine serum (FBS, Hyclone), glutamine (2 mM, Hyclone), and antibiotics (penicillin 100 U/mL and streptomycin 50 μg/mL) at 37° C. in a humidified atmosphere of 5% CO2 in air. Taxol (as a positive control. Sigma) and compounds were dissolved in DMSO (Sigma), and the final concentration of DMSO in the medium was 1%. Tumor cells were plated in 96-well plates at densities of about 4000 cells/well of a 96-well plate and allowed to adhere/grow for 24 h. They were then treated with various concentrations of drug for 72 h, 3-(4,5-Dimethylthiazol-2-yl)-2,5-diphenyltetrazolium bromide (MTT, Sigma) was used to determine the number of viable cells at the time of compound addition and the number of cells remaining after 72 h compound exposure. The number of cells remaining after 72 h was compared to the number of viable cells at the time of compound addition by measuring the absorbance at 570 nm, allowing for the calculation of growth inhibition.
(§1) All concentrations of compounds were tested in triplicate and controls were averaged over 4 wells. IC50 was calculated by plotting the concentration of compound vs the percentage of inhibition in treated wells using GraphPad Prism 5.

EGFR (ErbB1) = EGFR (ErbB1) (Homo sapiens (Human), UniProt P00533); test: Z'-LYTE kinase inhibition assay, EGFR; assay type: biochemical; conditions: for inhibition at 0.041 µM: read-out: % inhibition against EGFR (Compound at 0.041 μM)
Outline: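 IC50 values derived from 10-point, 3-fold compound dilution series (1% DMSO final) using Z'-LYTE fluorescence readout after 60-min development. Reaction: EGFR (1.1-5.25 ng) with 2 μM peptide, 60 min at room temperature in HEPES pH 7.5 buffer containing MgCl2, MnCl2, EGTA, DTT and BRIJ-35.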

A431 cells = test: cells; conditions: Homo sapiens, A-431, 72 h, read-out: IC50 in A431 cells
Procedure: Taxol (as a positive control. Sigma) and compounds were dissolved in DMSO (Sigma), and the final concentration of DMSO in the medium was 1%. Tumor cells were plated in 96-well plates at densities of about 4000 cells/well of a 96-well plate and allowed to adhere/grow for 24 h. They were then treated with various concentrations of drug for 72 h, 3-(4,5-Dimethylthiazol-2-yl)-2,5-diphenyltetrazolium bromide (MTT, Sigma) was used to determine the number of viable cells at the time of compound addition and the number of cells remaining after 72 h compound exposure. The number of cells remaining after 72 h was compared to the number of viable cells at the time of compound addition by measuring the absorbance at 570 nm, allowing for the calculation of growth inhibition.
as §1
The scale utilized in Tables 5 is as follows: +++ less than 100 nM; ++ between 100 nM and 500 nM; and + greater than 500 nM.

BTK = BTK (Homo sapiens (Human), UniProt Q06187); test: Z'-LYTE kinase inhibition assay, BTK; assay type: biochemical; conditions: for inhibition at 0.041 µM: compound at 0.041 μM, read-out: % inhibition against BTK
Procedure: Inhibitory activities of compounds against BTK, EGFR and EGFR mutants (EGFR L858R, EGFR T790M, EGFR L858R/T790M), FGFR1, FGFR2, JAK2, JAK3 and KDR were measured by Invitrogen using Z'-LYTE® Method as briefly described in the following.
Test Compounds are screened in 1% DMSO (final) in the well. For 10 point titrations, 3-fold serial dilutions are conducted from the starting concentration. All ATP Solutions are diluted to a 4× working concentration in Kinase Buffer (50 mM HEPES pH 7.5, 0.01% BRIJ-35, 10 mM MgCl2, 1 mM EGTA). Peptide/Kinase Mixtures are diluted to a 2× working concentration in the appropriate Kinase Buffers as described below.
(v) Peptide/Kinase Mixtures for Measurement of BTK:
The 2×BTK/Tyr 01 mixture is prepared in 50 mM HEPES pH 7.5. 0.01% BRIJ-35, 10 mM MgCl2, 1 mM EGTA.
The mixture is then incubated for another 60-minute at room temperature for development reaction. Finally fluorescence is read by plate reader.
To determine IC50 of a compound against EGFR, EGFR mutant and other kinases, a series of concentrations of the compound were tested for the inhibition. […] The scale utilized in Table 4 is as follows: +++ less than 100 nM, ++ 100-500 nM and + greater than 500 nM.

Sequence of EGFR (ErbB1) T790M L858R (P00533 25-1210 T790M/L858R): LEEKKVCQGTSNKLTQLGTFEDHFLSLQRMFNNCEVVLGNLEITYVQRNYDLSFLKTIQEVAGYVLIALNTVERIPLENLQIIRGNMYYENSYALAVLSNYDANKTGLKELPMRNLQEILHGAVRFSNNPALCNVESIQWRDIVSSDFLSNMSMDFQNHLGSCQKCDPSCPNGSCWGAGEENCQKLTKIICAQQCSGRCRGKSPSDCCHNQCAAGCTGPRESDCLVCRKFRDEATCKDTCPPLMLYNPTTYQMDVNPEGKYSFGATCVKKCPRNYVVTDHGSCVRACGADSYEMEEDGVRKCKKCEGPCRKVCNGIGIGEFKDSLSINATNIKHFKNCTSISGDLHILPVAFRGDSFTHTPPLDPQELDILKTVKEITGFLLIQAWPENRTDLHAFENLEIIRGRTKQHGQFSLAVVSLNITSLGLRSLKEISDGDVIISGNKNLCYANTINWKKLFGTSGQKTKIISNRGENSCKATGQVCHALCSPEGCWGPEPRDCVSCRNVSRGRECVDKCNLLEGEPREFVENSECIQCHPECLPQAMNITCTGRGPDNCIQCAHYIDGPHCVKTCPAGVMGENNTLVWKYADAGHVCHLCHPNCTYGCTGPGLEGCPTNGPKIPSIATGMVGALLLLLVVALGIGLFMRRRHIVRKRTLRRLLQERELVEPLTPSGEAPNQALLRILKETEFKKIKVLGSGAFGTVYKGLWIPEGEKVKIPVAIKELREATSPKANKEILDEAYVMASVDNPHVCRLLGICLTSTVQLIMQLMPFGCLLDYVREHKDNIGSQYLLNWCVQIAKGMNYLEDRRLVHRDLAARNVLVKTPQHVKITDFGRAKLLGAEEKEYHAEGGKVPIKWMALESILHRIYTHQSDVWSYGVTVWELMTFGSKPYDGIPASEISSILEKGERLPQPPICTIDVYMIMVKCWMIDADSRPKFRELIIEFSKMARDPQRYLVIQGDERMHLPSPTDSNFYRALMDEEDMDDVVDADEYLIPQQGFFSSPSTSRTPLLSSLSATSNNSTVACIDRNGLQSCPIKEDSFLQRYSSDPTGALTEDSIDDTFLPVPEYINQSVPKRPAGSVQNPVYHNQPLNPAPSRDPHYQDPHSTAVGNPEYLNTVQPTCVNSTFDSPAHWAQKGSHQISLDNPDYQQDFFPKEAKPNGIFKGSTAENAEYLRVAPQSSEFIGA
Sequence of EGFR (ErbB1) (P00533 25-1210): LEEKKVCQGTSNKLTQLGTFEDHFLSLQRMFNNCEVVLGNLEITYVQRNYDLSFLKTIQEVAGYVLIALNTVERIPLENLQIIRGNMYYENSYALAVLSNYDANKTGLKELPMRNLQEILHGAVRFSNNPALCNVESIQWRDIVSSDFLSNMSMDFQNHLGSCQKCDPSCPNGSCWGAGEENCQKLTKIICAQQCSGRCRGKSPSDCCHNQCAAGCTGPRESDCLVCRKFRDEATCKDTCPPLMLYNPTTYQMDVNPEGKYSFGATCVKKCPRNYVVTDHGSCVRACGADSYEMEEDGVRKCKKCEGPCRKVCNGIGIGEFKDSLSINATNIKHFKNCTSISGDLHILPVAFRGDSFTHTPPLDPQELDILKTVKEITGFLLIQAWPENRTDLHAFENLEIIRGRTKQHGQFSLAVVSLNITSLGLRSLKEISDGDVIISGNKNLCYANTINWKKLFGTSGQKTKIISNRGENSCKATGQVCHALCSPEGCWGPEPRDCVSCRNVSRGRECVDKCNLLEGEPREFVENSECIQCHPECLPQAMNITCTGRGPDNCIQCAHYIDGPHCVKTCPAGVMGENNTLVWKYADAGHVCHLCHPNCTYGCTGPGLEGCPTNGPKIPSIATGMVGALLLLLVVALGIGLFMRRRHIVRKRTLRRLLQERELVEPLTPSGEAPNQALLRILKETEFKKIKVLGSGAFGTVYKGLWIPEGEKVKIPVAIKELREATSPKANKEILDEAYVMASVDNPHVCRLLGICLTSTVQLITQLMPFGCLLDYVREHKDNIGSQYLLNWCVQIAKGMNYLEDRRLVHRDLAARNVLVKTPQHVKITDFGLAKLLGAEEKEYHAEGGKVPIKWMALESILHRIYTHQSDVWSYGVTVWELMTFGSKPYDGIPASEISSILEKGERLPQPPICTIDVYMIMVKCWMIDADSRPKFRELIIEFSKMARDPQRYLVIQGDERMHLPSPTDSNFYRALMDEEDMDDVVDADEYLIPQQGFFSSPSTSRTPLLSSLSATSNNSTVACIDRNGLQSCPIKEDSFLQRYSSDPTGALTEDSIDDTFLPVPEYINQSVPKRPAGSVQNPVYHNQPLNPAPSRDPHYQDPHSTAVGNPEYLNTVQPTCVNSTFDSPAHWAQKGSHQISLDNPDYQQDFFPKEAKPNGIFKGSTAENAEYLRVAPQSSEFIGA
Sequence of BTK (Q06187 whole entry): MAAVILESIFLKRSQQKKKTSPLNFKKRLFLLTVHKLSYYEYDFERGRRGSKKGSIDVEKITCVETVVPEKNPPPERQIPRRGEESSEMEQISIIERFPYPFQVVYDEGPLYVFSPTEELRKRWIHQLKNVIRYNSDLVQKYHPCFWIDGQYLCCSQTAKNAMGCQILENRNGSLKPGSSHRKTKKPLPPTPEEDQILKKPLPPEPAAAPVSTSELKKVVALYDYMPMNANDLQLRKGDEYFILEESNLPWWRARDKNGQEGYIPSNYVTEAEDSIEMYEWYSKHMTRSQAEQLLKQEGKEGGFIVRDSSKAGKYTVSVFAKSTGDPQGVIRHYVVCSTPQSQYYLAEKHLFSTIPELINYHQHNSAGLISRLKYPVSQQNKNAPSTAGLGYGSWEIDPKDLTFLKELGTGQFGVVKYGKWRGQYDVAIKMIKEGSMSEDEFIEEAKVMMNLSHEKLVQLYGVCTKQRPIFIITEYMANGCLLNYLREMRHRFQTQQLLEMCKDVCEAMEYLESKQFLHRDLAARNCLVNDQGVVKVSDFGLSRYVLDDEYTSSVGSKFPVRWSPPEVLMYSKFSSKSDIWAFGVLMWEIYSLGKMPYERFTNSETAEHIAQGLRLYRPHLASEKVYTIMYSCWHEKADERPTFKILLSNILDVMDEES

SMILES | IC50 (HCC827 cells) [nM] | inhibition at 1 µM (EGFR (ErbB1) T790M L858R) [%] | IC50 (H1975 cells) [nM] | inhibition at 1 µM (EGFR (ErbB1); read-out: % inhibition against EGFR (Compound at 1 μM)) [%] | inhibition at 0.041 µM (EGFR (ErbB1)) [%] | IC50 (A431 cells) [nM] | IC50 (EGFR (ErbB1) T790M L858R) [nM] | inhibition at 0.0137 µM (EGFR (ErbB1) T790M L858R) [%] | inhibition at 0.041 µM (BTK) [%] | IC50 (BTK; read-out: IC50 against BTK) [nM]
Fc1ccc(Cl)cc1-c1cccc2cnc(Nc3ccc(N4CCNCC4)cc3)nc12 [Example C024, 8-(5-chloro-2-fluorophenyl)-N-(4-(piperazin-1-yl)phenyl)quinazolin-2-amine] | > 500 | > 50 | > 500 |  |  |  |  |  |  | 
Fc1ccc(OCCN2CCOCC2)cc1-c1cccc2cnc(Nc3ccc(N4CCNCC4)cc3)nc12 [Example C028, 8-(2-fluoro-5-(2-morpholinoethoxy)phenyl)-N-(4-(piperazin-1-yl)phenyl)quinazolin-2-amine] | > 500 | > 50 | > 500 |  |  |  |  |  |  | 
c1ccc(-c2cccc3cnc(Nc4ccc(N5CCNCC5)cc4)nc23)cc1 [Example C030, 8-phenyl-N-(4-(piperazin-1-yl)phenyl)quinazolin-2-amine] | 100 to 500 | > 50 | 100 to 500 | > 50 |  |  |  |  |  | 
C=CC(=O)Nc1cccc(-c2c(CO)ccc3cnc(Nc4ccc(N5CCN(C)CC5)cc4)nc23)c1 [Example C037, N-(3-(7-(hydroxymethyl)-2-((4-(4-methylpiperazin-1-yl)phenyl)amino)quinazolin-8-yl)phenyl)acrylamide] | < 100 |  | < 100 |  | > 50 | < 100 |  |  |  | 
C=CC(=O)Nc1cccc(-c2cccc3cnc(Nc4ccc(N5CCN(CC)CC5)cc4)nc23)c1F [Example C038, N-(3-(2-((4-(4-ethylpiperazin-1-yl)phenyl)amino)quinazolin-8-yl)-2-fluorophenyl)acrylamide] | < 100 |  | < 100 |  |  |  |  |  |  | 
C=CC(=O)Nc1cccc(-c2cccc3cnc(Nc4ccc(OCCO)cc4)nc23)c1 [Example C108, N-(3-(2-((4-(2-hydroxyethoxy)phenyl)amino)quinazolin-8-yl)phenyl)acrylamide] |  |  | < 100 |  |  | > 500 | < 100 |  |  | < 100
C=CC(=O)Nc1cccc(-c2cccc3cnc(Nc4ccc(N[C@H]5CCOC5)cc4)nc23)c1 [Example C114, (S)-N-(3-(2-((4-((tetrahydrofuran-3-yl)amino)phenyl)amino)quinazolin-8-yl)phenyl)acrylamide] |  |  | < 100 |  | < 50 |  |  | < 50 | > 50 | 
C=CC(=O)Nc1cccc(-c2cccc3cnc(Nc4ccc(N5CCNC(=O)C5)cc4)nc23)c1 [Example C117, N-(3-(2-((4-(3-oxopiperazin-1-yl)phenyl)amino)quinazolin-8-yl)phenyl)acrylamide] |  |  | 100 to 500 |  | < 50 |  |  | < 50 | > 50 | 
C=CC(=O)Nc1cccc(-c2cccc3cnc(Nc4ccc(NC5CCN(C(C)=O)CC5)cc4)nc23)c1 [Example C120, N-(3-(2-((4-((1-acetylpiperidin-4-yl)amino)phenyl)amino)quinazolin-8-yl)phenyl)acrylamide] |  |  | < 100 |  | < 50 |  |  | < 50 | > 50 | 
C=CC(=O)Nc1cccc(-c2cccc3cnc(Nc4ccc(NC5CN(C(C)=O)C5)cc4)nc23)c1 [Example C124, N-(3-(2-((4-((1-acetylazetidin-3-yl)amino)phenyl)amino)quinazolin-8-yl)phenyl)acrylamide] |  |  | < 100 |  | < 50 |  |  | < 50 | > 50 | 

The next lines start with results.

IC50 (HCC827 cells) [nM] | inhibition at 1 µM (EGFR (ErbB1) T790M L858R) [%] | IC50 (H1975 cells) [nM] | inhibition at 1 µM (EGFR (ErbB1); read-out: % inhibition against EGFR (Compound at 1 μM)) [%] | inhibition at 0.041 µM (EGFR (ErbB1)) [%] | IC50 (A431 cells) [nM] | IC50 (EGFR (ErbB1) T790M L858R) [nM] | inhibition at 0.0137 µM (EGFR (ErbB1) T790M L858R) [%] | inhibition at 0.041 µM (BTK) [%] | SMILES | IC50 (BTK; read-out: IC50 against BTK) [nM]
 |  | < 100 |  | < 50 | 100 to 500 | < 100 | > 50 | > 50 | C=CC(=O)Nc1cccc(-c2cccc3cnc(Nc4ccc(OCCN5CCC5)cc4)nc23)c1 [Example C109, N-(3-(2-((4-(2-(azetidin-1-yl)ethoxy)phenyl)amino)quinazolin-8-yl)phenyl)acrylamide] | 
 |  | < 100 |  | < 50 | < 100 | < 100 | > 50 | > 50 | C=CC(=O)Nc1cccc(-c2cccc3cnc(Nc4ccc(OCCN(C)C)cc4)nc23)c1 [Example C110, N-(3-(2-((4-(2-(dimethylamino)ethoxy)phenyl)amino)quinazolin-8-yl)phenyl)acrylamide] | 
 |  | < 100 |  | < 50 |  |  | < 50 | > 50 | C=CC(=O)Nc1cccc(-c2cccc3cnc(Nc4ccc(O[C@H]5CCOC5)cc4)nc23)c1 [Example C113, (S)-N-(3-(2-((4-((tetrahydrofuran-3-yl)oxy)phenyl)amino)quinazolin-8-yl)phenyl)acrylamide] | 
 |  | 100 to 500 |  | < 50 |  |  | < 50 | > 50 | C=CC(=O)Nc1cccc(-c2cccc3cnc(Nc4ccc(N[C@@H]5CCOC5)cc4)nc23)c1 [Example C115, (R)-N-(3-(2-((4-((tetrahydrofuran-3-yl)amino)phenyl)amino)quinazolin-8-yl)phenyl)acrylamide] | 
 |  | 100 to 500 |  | < 50 |  |  | < 50 | > 50 | C=CC(=O)Nc1cccc(-c2cccc3cnc(Nc4ccc(N5CCN(C)C(=O)C5)cc4)nc23)c1 [Example C116, N-(3-(2-((4-(4-methyl-3-oxopiperazin-1-yl)phenyl)amino)quinazolin-8-yl)phenyl)acrylamide] | 
 |  | < 100 |  | < 50 |  |  | < 50 | > 50 | C=CC(=O)Nc1cccc(-c2cccc3cnc(Nc4ccc(O[C@@H]5CCOC5)cc4)nc23)c1 [Example C119, (R)-N-(3-(2-((4-((tetrahydrofuran-3-yl)oxy)phenyl)amino)quinazolin-8-yl)phenyl)acrylamide] | 
 |  | < 100 |  | < 50 | 100 to 500 | < 100 | > 50 | > 50 | C=CC(=O)Nc1cccc(-c2cccc3cnc(Nc4ccc(O[C@H]5CCN(C)C5)cc4)nc23)c1 [Example C121, (S)-N-(3-(2-((4-((1-methylpyrrolidin-3-yl)oxy)phenyl)amino)quinazolin-8-yl)phenyl)acrylamide] | 
 |  | < 100 |  | < 50 |  |  | < 50 | > 50 | C=CC(=O)Nc1cccc(-c2cccc3cnc(Nc4ccc(OC5CN(C(C)=O)C5)cc4)nc23)c1 [Example C122, N-(3-(2-((4-((1-acetylazetidin-3-yl)oxy)phenyl)amino)quinazolin-8-yl)phenyl)acrylamide] | 
 |  | < 100 |  | > 50 | < 100 | < 100 | > 50 | > 50 | C=CC(=O)Nc1cccc(-c2cccc3cnc(Nc4ccc(O[C@@H]5CCN(C)C5)cc4)nc23)c1 [Example C123, (R)-N-(3-(2-((4-((1-methylpyrrolidin-3-yl)oxy)phenyl)amino)quinazolin-8-yl)phenyl)acrylamide] | 
 |  | < 100 |  | < 50 |  |  | < 50 | > 50 | C=CC(=O)Nc1cccc(-c2cccc3cnc(Nc4ccc(OC5CCN(C(C)=O)CC5)cc4)nc23)c1 [Example C125, N-(3-(2-((4-((1-acetylpiperidin-4-yl)oxy)phenyl)amino)quinazolin-8-yl)phenyl)acrylamide] | 
 |  | < 100 |  | > 50 | < 100 | < 100 | > 50 | > 50 | C=CC(=O)Nc1cccc(-c2cccc3cnc(Nc4ccc(OC5CCN(C)CC5)cc4)nc23)c1 [Example C126, N-(3-(2-((4-((1-methylpiperidin-4-yl)oxy)phenyl)amino)quinazolin-8-yl)phenyl)acrylamide] | 
